Consider one molecule from paper PMC4416304, “Nickel quercetinase, a “promiscuous” metalloenzyme: metal incorporation and metal ligand substitution studies” (BMC Biochemistry, 2015).

Usually Kd stands for the constant that tells how readily two partners part at equilibrium.

Positions count from the first letter of the chain named.

Common to all, as to assay: intrinsic protein fluorescence titration
What all share (format): binding

Assay [1] deals with T1, QueD (Ni-QueD; Streptomyces quercetinase) (Streptomyces sp. FLA, UniProt A2VA43, E76H).
T1 construct: C-terminal StrepII tag kept (pET23a-queD-Strep), E. coli BL21(DE3) pLysS grown with Ni2+; monocupin, native enzyme a dimer
T1 sequence (A2VA43 1-186 E76H): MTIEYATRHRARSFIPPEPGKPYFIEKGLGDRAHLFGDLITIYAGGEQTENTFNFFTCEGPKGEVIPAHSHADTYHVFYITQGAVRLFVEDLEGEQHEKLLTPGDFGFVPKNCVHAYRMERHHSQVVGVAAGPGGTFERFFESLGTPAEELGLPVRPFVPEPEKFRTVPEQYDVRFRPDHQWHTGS
From the text:
(§1) intrinsic protein fluorescence titration on QueD (Ni-QueD; Streptomyces quercetinase)

The target in assay [2] is T2, QueD (Ni-QueD; Streptomyces quercetinase) (Streptomyces sp. FLA, UniProt A2VA43, H71A).
T2 construct: C-terminal StrepII tag kept (pET23a-queD-Strep), E. coli BL21(DE3) pLysS grown with Ni2+; monocupin, native enzyme a dimer
T2 sequence (A2VA43 1-186 H71A): T1 sequence (A2VA43 1-186 E76H) with H71A, H76E
Description: as §1

For assay [3], the target named is T3, QueD (Ni-QueD; Streptomyces quercetinase) (Streptomyces sp. FLA, UniProt A2VA43, H69A).
T3 construct: C-terminal StrepII tag kept (pET23a-queD-Strep), E. coli BL21(DE3) pLysS grown with Ni2+; monocupin, native enzyme a dimer
T3 sequence (A2VA43 1-186 H69A): T1 sequence (A2VA43 1-186 E76H) with H69A, H76E
Description: as §1

The target of assay [4] is T4, QueD (Ni-QueD; Streptomyces quercetinase) (Streptomyces sp. FLA, UniProt A2VA43, H115A).
T4 construct: C-terminal StrepII tag kept (pET23a-queD-Strep), E. coli BL21(DE3) pLysS grown with Ni2+; monocupin, native enzyme a dimer
T4 sequence (A2VA43 1-186 H115A): T1 sequence (A2VA43 1-186 E76H) with H76E, H115A
Description: as §1

Assay [5] has as its target T5, QueD (Ni-QueD; Streptomyces quercetinase) (Streptomyces sp. FLA, UniProt A2VA43, E76D).
T5 construct: C-terminal StrepII tag kept (pET23a-queD-Strep), E. coli BL21(DE3) pLysS grown with Ni2+; monocupin, native enzyme a dimer
T5 sequence (A2VA43 1-186 E76D): T1 sequence (A2VA43 1-186 E76H) with H76D
Description: as §1

In assay [6] the target is T6, QueD (Ni-QueD; Streptomyces quercetinase) (Streptomyces sp. FLA, UniProt A2VA43).
T6 construct: C-terminal StrepII tag kept (pET23a-queD-Strep), E. coli BL21(DE3) pLysS grown with Ni2+; monocupin, native enzyme a dimer
T6 sequence (A2VA43 1-186): T1 sequence (A2VA43 1-186 E76H) with H76E
From the text: intrinsic protein fluorescence titration on QueD (Ni-QueD; Streptomyces quercetinase) | The K D value of the complex of Ni-QueD with quercetin

Turning to `O=c1c(O)c(-c2ccc(O)c(O)c2)oc2cc(O)cc(O)c12` [quercetin], the dissociation constant (Kd) in assay [1] was determined as 1.3 µM; in assay [2], 10.4 µM; in assay [3], 3.1 µM; in assay [4] it was 2.6 µM; in assay [5] it was 4 µM; in assay [6] it was 10.1 ± 2.9 µM.
